Results on three substances are retold here after patent US7968107B2, “Oil-based suspension concentrates” (Bayer Cropscience AG, priority 2004, dated 2011).

A short description of the test: Penetrants at the level of the cuticle (desorption method, tracer mobility with and without additive). Particulars: mobility of radiolabelled weak organic acid tracer in peach leaf cuticle; receptor buffer pH 7. The source says: Additives which act as penetrants at the level of the cuticle may be referred to below as accelerator additives (cf. Schönherr and Baur, 1994, Pesticide Science 42, 185-208). The feature of accelerator additives is their ability to penetrate from the aqueous spray liquor and/or from the spray covering into the cuticle and thereby to increase the mobility of active substances in the cuticle. Other additives such as polyethylene glycol, in contrast, act only in the spray covering (via the liquid phase) or act only as wetting agents, such as sodium dodecyl sulphate, for example.
This test determines the influence of additives on the penetration properties of other substances at the level of the cuticle. The mobility of the test substance in the cuticle is measured with and without an additive, by way of a desorption method. The method is published in detail in the literature (Baur et al., 1997, Pesticide Science, 51, 131-152) and only the principles and any deviations are described below.
As a test substance with the function of a tracer a selection was made here of a radiolabelled weak organic acid. Plant material used comprised the enzymatically isolated leaf cuticles of the top face of peach leaves from outdoor trees. The cuticles were installed in specially manufactured stainless steel diffusion cells. The tracer, in a citrate buffer at a pH of 3 in the dissolved state, was applied to the side originally facing the inside of the leaf. This inner side readily takes up the small radioactive amount of the tracer in the undissociated acid form. Subsequently this inner side was covered and maintained at 100% atmospheric humidity. The morphological outer side of the leaf cuticle, normally exposed to the air, was then contacted with a buffer (pH 7), with the receptor solution, and the desorption was started. The penetrated acid form of the test substance is dissociated by the receptor and the desorption follows first-order kinetics. The desorption constant is proportional to the mobility of the tracer in the cuticle. […]
Regarding CH3—(CH2)8—O—(-EO—)8—(—BO—)2—CH3 [Ie-2], the “Average effect (ratio of desorption slopes with additive to without additive)” value is reported as 89.1.

Take “CH3—(CH2)10—O—(-EO—)6—(—BO—)2—CH3 [Ie-1]”: the “Average effect (ratio of desorption slopes with additive to without additive)” value is given as 78.4.

For the substance “isotridecyl-(6) ethoxylate [Isotridecyl-(6) ethoxylate, open, reference compound]”, the “Average effect (ratio of desorption slopes with additive to without additive)” value turned out to be 42.3.
